Test results as given in patent US12600729B2, “New-type benzazepine fused ring derivative” (SHANGHAI JEYOU PHARMACEUTICAL CO., LTD., priority 2021, dated 2026).
Where two headings read alike, the source gives them in different places. Values belong to the compound of their own block, whether it stands above or below them.

Legend:
[1] = target: T1, human vasopressin receptor V2R (Homo sapiens, UniProt P30518); experiment: Inhibition of vasopressin-induced activation of V2R (cAMP HTRF in HeLa-V2R cells); format: cell-based; details: AVP 2.25 nM, read-out: IC50, inhibition of cAMP increase in human cervical cancer cells (Human V2R Hela-Stable cell line OE2)
T1 construct: host or cells: HeLa (lentivirus infection, puromycin selection)
Description: HeLa-V2R cells were incubated with DMEM medium supplemented with 10% fetal bovine serum under the condition of 37° C. and 5% CO2, and the medium was added with 2 μg/mL puromycin to continuously screen cells expressing V2R. On the day of the experiment, the cells were digested with trypsin, washed twice with the stimulation buffer in the cAMP-GS HIRANGE kit, resuspended, and counted to prepare 1.6×10^6 cells/mL, and IBMX was added until a final concentration of 0.5 mM. 5 μL of cell suspension/well was transferred to a 384-well plate. To the corresponding wells were added 2.5 μL of various concentrations of the test compounds (3-fold dilution from 10 μM, 10 concentration gradients) or DMSO (minimum value Min, maximum value Max as a control), respectively. […]. At the same time, cAMP standard samples (3-fold dilution from 5.6 μM, 10 concentration points) were prepared, and 10 μL of cAMP standard samples were transferred to corresponding wells of a 384-well plate. The cAMP-d2 fluorescence and anti-cAMP antibody probes provided in the kit were 20-fold diluted by the lysis buffer in the cAMP-GS HIRANGE kit. To each well of a 384-well plate was sequentially added 5 μL of each diluted reagent. The above mixture in each well was mixed well, centrifuged briefly, incubated at 25° C. for 2 hours, and tested. The sample was tested by the HTRF method with the Envision microplate reader to determine the fluorescence intensity at 615 nm and 665 nm. Each test sample was tested in duplicate, with 32 replicates for both Min and Max, respectively.
The fluorescence intensity ratio FI665/615 at the wavelength of 665 nm and 615 nm of the samples in each well was calculated. The logarithm of the concentration of the standard was taken as X, and FI665/615×1000 as the Y value, and the standard curve was obtained by fitting the “log(inhibitor) vs response-variable slope (four parameters)” model in Prism 8.0 software. FI665/615×1000 of the test well was taken as the Y value, and the cAMP concentration corresponding to each sample was calculated in the Prism 8.0 software according to the above standard curve.
% Inhibition (inhibition percentage) calculation formula is as follows: % inhibition=(Cmax−Ccmpd)/(Cmax−Cmin)×100
wherein Cmax is the average calculated value of cAMP concentration in all maximum wells; Cmin is the average calculated value of cAMP concentration in all minimum wells; Ccmpd is the calculated value of cAMP concentration of the test compound.
% Inhibition (inhibition percentage) was taken as the Y value, and the logarithmic value of the compound concentration was taken as the X value, and the IC50 was calculated by nonlinear regression with “log(inhibitor) vs response-variable slope (four parameters)” model in Prism 8.0 software, wherein Y=Bottom+(Top−Bottom)/(1+10^((Log IC50−X)×Hill Slope)).

[2] = target: T2, human V1aR (Homo sapiens, UniProt P37288); experiment: Competitive isotope ligand binding, V1a receptor
T2 construct: expressed in transfected cells; membranes prepared in house
Description: (§1) The cells with high expression of human V1a receptor were amplified, collected, washed twice with PBS, resuspended with PBS containing a protease inhibitor, homogenized with a homogenizer at 15000 r/min to break the cells, and centrifuged at 4° C. and 3000 r/min for 15 minutes. The supernatant was collected, centrifuged at 20,000 r/min at 4° C. for 45 minutes. Then the supernatant was discarded to obtain a cell membrane precipitation. Buffer was added to resuspend to measure the protein concentration, aliquoted, and stored at −80° C. The cell membranes of highly expressed human V1b and V2 receptors were purchased from Perkinelmer, USA.
(§2) The stock solution of the test compound and that of the positive control were diluted to 1 mM (10-fold dilution) and 0.1 mM (100-fold dilution) with DMSO, respectively, and then sequentially subjected to a four-fold dilution with DMSO to the tenth point.
(§3) Cell membranes overexpressing human receptors were prepared with assay buffer to 5 mg/mL.
(§4) • 1. 1 μL of the compound was aspirated from the dilution plate into each well of the 96-well assay plate (the concentration of the test compound in the reaction would be diluted 100-fold). To the control well was added 1 μL of DMSO. • 2. 10 mL of membrane solution containing 5 μg/μL was prepared. • 3. To the compound assay plate was added the membrane solution from step 2 with a pipette, and each well was added with 89 μL of the membrane solution. • 4. […] The configured test plate was placed at 30° C. and incubated for 60 minutes. • 6. The membrane complexes were collected into 0.5% PEI pre-coated GF/B plate with Cell Harvester, washed 3 times with 2 mL of pre-cooled elution buffer at 4° C., and dried at 37° C. for 2 hours. • 7.
(§5) Y=Bottom+(Top−Bottom)/(1+10^((X−Log IC50))), wherein: Y is the reading value of the liquid scintillation counter, and X is the logarithmic value of the compound concentration.

[3] = In vivo pharmacokinetics in mice, oral administration; details: male CD1 mice, oral 10 mg/kg; for AUC(0-inf) / Cmax / half-life: mouse, plasma
Description: In this experimental example, in vivo pharmacokinetic evaluations were performed on mice by intravenous injection and oral administration.
Experimental methods and conditions: Male CD1 mice, 6 to 8 weeks old with free access to food and water, were administered by oral gavage with a dosage of 10 mg/kg (solvent 5% DMSO/10% Solutol/85% Saline). 15 minutes, 30 minutes, 1 hour, 2 hours, 4 hours, 8 hours, 10 hours, 24 hours after administration, blood samples were collected. Each sample was collected in a volume of 150 μL and anticoagulated with heparin sodium, placed on ice after collection, and centrifuged within 1 hour to separate the test plasma. The plasma concentration in plasma was tested by liquid chromatography-tandem mass spectrometry (LC/MS/MS), and pharmacokinetic parameters were calculated using Phoenix WinNonlin software via the measured concentration.

[4] = system: LLC-PK1 cells; experiment: AVP-induced LLC-PK1 cell proliferation assay; format: cell-based, Porcine; design: Proliferation inhibition grading, Repeated experiment I / Proliferation inhibition grading, Repeated experiment II: key to the marks not given beside the values; details: for Proliferation inhibition grading, Repeated experiment I / Proliferation inhibition grading, Repeated experiment II: LLC-PK1, AVP 10 nM, verapamil 5 μM, graded against Tolvaptan; for hook effect in AVP-induced LLC-PK1 cell proliferation: high concentration, up to 3 μM
Description: Porcine renal epithelial cell LLC-PK1: purchased from ATCC, Cat #CL-101 The pathogenesis of polycystic kidney disease is related to the low intracellular calcium ion concentration of renal collecting duct epithelial cells and the cAMP-dependent excessive proliferation of cells. […] LLC-PK1 cells were incubated with M199 medium supplemented with 10% fetal bovine serum under the condition of 37° C. and 5% CO2. On the first day of the experiment, a 96-well plate was coated with 0.01% Poly-D-lysine, then each well of the plate was added with 100 μL of the above mixture. After standing at room temperature for 10 minutes, the mixture in each well was aspirated and air-dried at room temperature for 1 hour, and washed once with 200 μL 1×PBS for further use. LLC-PK1 cells were digested with trypsin, resuspended with serum-free M199 after centrifugation, counted, diluted into 1×10^5/mL cell suspension with serum-free M199 medium, and added with FBS until 1% final concentration. To a 96-well plate was transfered 200 μL of cell suspension/well. After the cells were incubated for 24 hours, the supernatant of the formulated solution was aspirated, and the cells were washed once with 200 μL of PBS. Then 160 μL of M199 medium containing 0.05% FBS and 20 μL of 10×Verapamil (final concentration of 5 μM) were sequentially added thereto, and the culture was continued for 24 hours. To the corresponding wells was respectively added 10 μL of various concentrations of the test compound (final concentration starting from 3 μM, 3-fold dilution, 8 concentration gradients) or DMSO (Min, and Max as a control) on the third day. […] On the fifth day, the culture medium was carefully aspirated. The cells were washed once with 200 μL of PBS. 90 μL of M199 serum-free medium was carefully added thereto, and then 10 μL of Alamarblue reagent was added thereto. The mixture was centrifuged at 300 rpm for 1 minute, incubated at 37° C. for 2 hours, and then tested. SpectraMax instrument was used for the sample test. The excitation light was 560 nm, and the emission light was 595 nm. Each test sample was tested in triplicate, with 6 replicates for both Min and Max, respectively. The concentration of the compound was taken as the X value, and the average value of the fluorescence intensity of each experimental well sample minus the fluorescence intensity of the background well was taken as the Y value, which represented the number of living cells in the well at the time of testing. The Grouped-Summary data-Separated bar graph in GraphPad Prism 8.0 software was used to make a bar chart for reflecting the dose-effect relationship of different compounds on AVP-induced cell proliferation. […] Data quality control: […]

[5] = target: T3, human V2R (Homo sapiens, UniProt P30518); experiment: Competitive isotope ligand binding, V2 receptor
T3 construct: purchased Perkinelmer, USA
Description: as §1, §2, §3, §4, §5

[6] = target: T4, human V1bR (Homo sapiens, UniProt P47901); experiment: Competitive isotope ligand binding, V1b receptor
T4 construct: purchased Perkinelmer, USA
T4 sequence (P47901 1-424): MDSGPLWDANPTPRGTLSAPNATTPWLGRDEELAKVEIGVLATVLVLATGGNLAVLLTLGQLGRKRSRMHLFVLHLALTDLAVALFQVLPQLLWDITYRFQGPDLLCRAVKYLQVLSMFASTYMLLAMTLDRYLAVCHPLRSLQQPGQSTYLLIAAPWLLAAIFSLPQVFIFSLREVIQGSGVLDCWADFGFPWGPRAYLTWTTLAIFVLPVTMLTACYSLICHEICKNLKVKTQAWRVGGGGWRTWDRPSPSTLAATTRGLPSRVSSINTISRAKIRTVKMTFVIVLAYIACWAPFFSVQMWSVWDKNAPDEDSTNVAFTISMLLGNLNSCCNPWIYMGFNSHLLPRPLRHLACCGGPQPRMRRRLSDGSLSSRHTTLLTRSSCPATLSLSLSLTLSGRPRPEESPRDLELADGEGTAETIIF
Description: as §1, §2, §3, §4, §5

[7] = read-out: Binding affinity V1bR, N = 2, isotope-labeled vasopressin […], experiment 2, bound printed in μM

T1 sequence (P30518 whole entry): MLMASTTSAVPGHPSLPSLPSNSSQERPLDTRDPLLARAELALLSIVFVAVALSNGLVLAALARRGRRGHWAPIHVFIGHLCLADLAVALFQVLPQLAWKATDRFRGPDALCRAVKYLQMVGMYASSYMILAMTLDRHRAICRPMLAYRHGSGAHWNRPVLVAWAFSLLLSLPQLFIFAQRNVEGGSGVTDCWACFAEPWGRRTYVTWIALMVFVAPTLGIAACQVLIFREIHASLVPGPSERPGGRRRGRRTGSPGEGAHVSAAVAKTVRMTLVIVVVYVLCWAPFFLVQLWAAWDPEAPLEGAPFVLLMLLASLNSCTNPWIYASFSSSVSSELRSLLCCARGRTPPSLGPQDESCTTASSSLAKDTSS
T3 sequence (P30518 whole entry): as above
T2 sequence (P37288 whole entry): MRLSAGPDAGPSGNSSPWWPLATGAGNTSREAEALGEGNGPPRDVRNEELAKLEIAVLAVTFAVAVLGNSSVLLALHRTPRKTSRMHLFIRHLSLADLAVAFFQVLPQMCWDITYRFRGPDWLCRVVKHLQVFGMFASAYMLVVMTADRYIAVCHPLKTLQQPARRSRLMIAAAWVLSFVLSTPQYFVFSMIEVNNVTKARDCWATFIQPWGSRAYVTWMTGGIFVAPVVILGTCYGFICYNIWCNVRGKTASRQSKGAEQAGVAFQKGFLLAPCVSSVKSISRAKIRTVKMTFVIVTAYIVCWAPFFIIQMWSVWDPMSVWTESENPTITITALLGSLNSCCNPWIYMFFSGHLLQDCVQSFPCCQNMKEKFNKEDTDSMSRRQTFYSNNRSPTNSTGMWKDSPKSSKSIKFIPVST

SMILES: Cc1ccccc1C(=O)Nc1ccc(C(=O)N2CCC3CCOC3c3cc(Cl)ccc32)c(C)c1 (single isomer, unassigned) [Compound 4]
IC50 [1]: 0.00745 µM

SMILES: Cc1ccccc1C(=O)Nc1ccc(C(=O)N2CCC3CCOC3c3cc(Cl)ccc32)c(C)c1 (single isomer, unassigned) [Compound 5]
IC50 [1]: 0.0616 µM

SMILES: Cc1ccccc1C(=O)Nc1ccc(C(=O)N2CCC3CCNC3c3cc(Cl)ccc32)c(C)c1 (stereo not drawn) [Compound 1]
dose-response compared with Tolvaptan ([4]; AVP-induced LLC-PK1 cell proliferation): superior to that of Tolvaptan | hook effect in AVP-induced LLC-PK1 cell proliferation [4]: no hook effect | IC50 [1]: 0.0147 µM

SMILES: Cc1cc(NC(=O)c2ccccc2Cl)ccc1C(=O)N1CCC2CNC2c2cc(Cl)ccc21 (stereo not drawn) [Compound 7]
IC50 [1]: 0.0927 µM

SMILES: Cc1ccccc1C(=O)Nc1ccc(C(=O)N2CCCC(O)c3cc(Cl)ccc32)c(C)c1 (stereo not drawn) [Reference substance 1, Tolvaptan, reference compound]
F [3]: 44% | AUC(0-inf) [3]: 1610 ng·h/mL | Cmax [3]: 1310 ng/mL | half-life [3]: 1.58 h | Proliferation inhibition grading, Repeated experiment I [4]: ++ | Proliferation inhibition grading, Repeated experiment II [4]: ++ | hook effect in AVP-induced LLC-PK1 cell proliferation [4]: high-concentration pro-proliferative hook effect | IC50 [6]: > 10 µM | Ki ([6]; read-out: Binding affinity V1bR, N = 1, isotope-labeled vasopressin […], experiment 1, bound printed in μM): > 10 µM | Ki [6, 7]: > 10 µM | Ki ([6]; read-out: Binding affinity V1bR, summary of the two experiments): > 10 µM

Second part, led by results:

Ki ([2]; Binding affinity V1aR, N = 1, isotope-labeled vasopressin […], experiment 1): 0.0197 µM | Ki ([2]; Binding affinity V1aR, N = 2, isotope-labeled vasopressin […], experiment 2): 0.0111 µM | Ki ([2]; isotope-labeled vasopressin […], mean ± spread, read-out: Binding affinity V1aR, mean of the two experiments): 0.0154 ± 0.0043 µM | F [3]: 73.34% | AUC(0-inf) [3]: 2030 ng·h/mL | Cmax [3]: 833 ng/mL | half-life [3]: 4.44 h | IC50 [1]: 0.031 µM | binding affinity for V2R compared with V1a (V1a/V2 selectivity) [5]: higher than that for V1a | Ki ([5]; Binding affinity V2R, N = 1, isotope-labeled vasopressin 1 nM, experiment 1): 0.0021 µM | Ki ([5]; Binding affinity V2R, N = 2, isotope-labeled vasopressin 1 nM, experiment 2): 0.00276 µM | Ki ([5]; isotope-labeled vasopressin 1 nM, mean ± spread, read-out: Binding affinity V2R, mean of the two experiments): 0.0024 ± 0.0003 µM | IC50 [6]: > 10 µM | Ki [6]: > 10 µM | Ki ([6]; isotope-labeled vasopressin […], bound given in μM, read-out: Binding affinity V1bR, summary of the two experiments): > 10 µM | Ki [6, 7]: > 10 µM
SMILES: O=C(Nc1ccc(C(=O)N2CC[C@@H]3CCN[C@H]3c3cc(Cl)ccc32)cn1)c1ccccc1C(F)(F)F (single isomer, unassigned) [Compound 10A]
Proliferation inhibition grading, Repeated experiment I [4]: +++ | Proliferation inhibition grading, Repeated experiment II [4]: +++

IC50 [1]: 0.0326 µM
SMILES: O=C(Nc1ccc(C(=O)N2CCC3CCNC3c3cc(Cl)ccc32)cn1)c1ccccc1C(F)(F)F (stereo not drawn) [Compound 2]

IC50 [1]: 0.0847 µM
SMILES: CN1CCC2CCN(C(=O)c3ccc(NC(=O)c4ccccc4C(F)(F)F)nc3)c3ccc(Cl)cc3[C@H]21 (stereo partly drawn) [Compound 3A]

IC50 [1]: 0.00385 µM
SMILES: Cc1ccccc1C(=O)Nc1ccc(C(=O)N2CCC3COC3c3cc(Cl)ccc32)c(C)c1 (stereo not drawn) [Compound 6]

IC50 [1]: 0.0695 µM
SMILES: O=C(Nc1ccc(C(=O)N2CCC3CCNC3c3cc(Cl)ccc32)cn1)c1ccccc1C(F)(F)F (stereo not drawn) [Compound 8]
